Experimental data from patent publication US10760052B2, “Method of inhibiting tau phosphorylation” (priority 2012, dated 2020).
Read-outs that look alike come from different tables or passages of the source.

How the values were obtained:
α7nAChR-FLNA complex [1] = biological target: T1, α7nAChR-FLNA complex (Rattus norvegicus, UniProt A0A8I5ZV49); experiment: Aβ42-induced α7nAChR-FLNA association in rat frontal cortical synaptosomes (co-immunoprecipitation/Western blot); format: cell-based; conditions: 1 or 10 nM compound, simultaneously or 10 minutes prior to Aβ42 (0.1 μM)
T1 construct: from tissue; host or cells: rat frontal cortex synaptosomes
T1 sequence (A0A8I5ZV49 entry or part of it, one chain of several): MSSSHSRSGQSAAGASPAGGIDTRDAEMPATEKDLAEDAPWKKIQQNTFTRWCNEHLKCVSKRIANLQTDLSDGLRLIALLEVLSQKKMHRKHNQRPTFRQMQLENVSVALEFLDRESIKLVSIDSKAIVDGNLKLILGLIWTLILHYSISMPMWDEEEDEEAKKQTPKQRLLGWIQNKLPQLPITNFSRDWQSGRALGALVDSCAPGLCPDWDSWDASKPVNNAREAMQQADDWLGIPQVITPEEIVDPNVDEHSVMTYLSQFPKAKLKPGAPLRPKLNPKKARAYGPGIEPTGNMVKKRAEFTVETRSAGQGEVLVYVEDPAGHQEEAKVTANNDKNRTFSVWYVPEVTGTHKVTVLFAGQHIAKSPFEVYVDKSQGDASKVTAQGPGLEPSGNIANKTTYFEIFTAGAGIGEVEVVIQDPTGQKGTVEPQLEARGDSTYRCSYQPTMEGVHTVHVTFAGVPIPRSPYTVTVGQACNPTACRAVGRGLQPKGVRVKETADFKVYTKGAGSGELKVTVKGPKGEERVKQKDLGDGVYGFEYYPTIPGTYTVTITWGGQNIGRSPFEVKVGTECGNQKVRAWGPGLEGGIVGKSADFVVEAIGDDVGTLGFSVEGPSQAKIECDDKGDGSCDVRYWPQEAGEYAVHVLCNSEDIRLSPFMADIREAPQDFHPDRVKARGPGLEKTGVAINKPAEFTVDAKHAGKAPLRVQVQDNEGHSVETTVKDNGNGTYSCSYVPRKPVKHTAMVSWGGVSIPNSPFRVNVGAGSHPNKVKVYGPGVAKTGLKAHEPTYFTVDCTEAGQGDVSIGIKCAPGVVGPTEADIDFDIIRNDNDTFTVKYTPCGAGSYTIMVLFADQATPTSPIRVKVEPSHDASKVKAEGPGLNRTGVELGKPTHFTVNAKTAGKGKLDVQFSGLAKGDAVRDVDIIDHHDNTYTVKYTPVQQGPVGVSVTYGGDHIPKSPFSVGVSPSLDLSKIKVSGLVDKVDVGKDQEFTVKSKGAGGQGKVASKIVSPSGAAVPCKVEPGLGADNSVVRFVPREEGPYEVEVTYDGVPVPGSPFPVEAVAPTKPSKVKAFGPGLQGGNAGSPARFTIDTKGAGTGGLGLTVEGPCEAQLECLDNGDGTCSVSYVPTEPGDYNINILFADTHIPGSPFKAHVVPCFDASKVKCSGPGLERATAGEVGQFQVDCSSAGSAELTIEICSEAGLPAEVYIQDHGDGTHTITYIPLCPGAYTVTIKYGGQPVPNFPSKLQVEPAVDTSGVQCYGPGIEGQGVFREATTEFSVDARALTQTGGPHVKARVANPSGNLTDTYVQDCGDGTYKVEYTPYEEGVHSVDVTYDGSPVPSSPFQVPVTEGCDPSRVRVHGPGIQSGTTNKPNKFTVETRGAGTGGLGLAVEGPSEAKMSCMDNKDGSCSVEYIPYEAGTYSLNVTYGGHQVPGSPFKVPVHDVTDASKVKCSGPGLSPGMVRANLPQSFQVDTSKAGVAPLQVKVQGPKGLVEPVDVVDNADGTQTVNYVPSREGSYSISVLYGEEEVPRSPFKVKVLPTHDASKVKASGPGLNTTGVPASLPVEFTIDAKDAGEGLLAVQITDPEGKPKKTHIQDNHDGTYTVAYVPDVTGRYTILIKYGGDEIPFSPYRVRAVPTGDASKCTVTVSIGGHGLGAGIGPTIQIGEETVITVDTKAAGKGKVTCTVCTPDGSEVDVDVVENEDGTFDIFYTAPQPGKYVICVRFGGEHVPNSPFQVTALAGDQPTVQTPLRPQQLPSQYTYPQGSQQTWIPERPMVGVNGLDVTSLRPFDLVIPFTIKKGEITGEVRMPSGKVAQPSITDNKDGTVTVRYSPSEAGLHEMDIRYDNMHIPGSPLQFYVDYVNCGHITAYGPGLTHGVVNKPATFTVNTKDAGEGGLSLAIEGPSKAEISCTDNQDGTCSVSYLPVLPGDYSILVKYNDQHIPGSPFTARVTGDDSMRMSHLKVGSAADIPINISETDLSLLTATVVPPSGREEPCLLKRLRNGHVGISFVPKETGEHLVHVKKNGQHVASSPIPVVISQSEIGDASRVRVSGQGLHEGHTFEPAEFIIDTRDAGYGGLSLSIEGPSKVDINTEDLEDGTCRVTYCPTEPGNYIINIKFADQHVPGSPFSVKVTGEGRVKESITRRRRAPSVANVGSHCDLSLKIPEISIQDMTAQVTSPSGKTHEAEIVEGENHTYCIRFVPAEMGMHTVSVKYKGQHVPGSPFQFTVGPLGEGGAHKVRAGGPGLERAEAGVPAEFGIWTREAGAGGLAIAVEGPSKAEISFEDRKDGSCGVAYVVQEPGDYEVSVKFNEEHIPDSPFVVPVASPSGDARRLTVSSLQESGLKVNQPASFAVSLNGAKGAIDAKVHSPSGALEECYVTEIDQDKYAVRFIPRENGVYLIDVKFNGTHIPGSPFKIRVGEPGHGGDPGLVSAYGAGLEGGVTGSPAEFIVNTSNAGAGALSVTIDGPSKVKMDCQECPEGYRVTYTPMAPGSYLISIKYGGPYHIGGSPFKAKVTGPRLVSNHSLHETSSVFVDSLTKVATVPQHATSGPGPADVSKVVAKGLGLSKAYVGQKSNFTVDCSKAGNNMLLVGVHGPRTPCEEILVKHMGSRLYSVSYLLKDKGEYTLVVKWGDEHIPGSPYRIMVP
Excerpt: The α7nAChR-FLNA complexes in the solubilized synaptosomes were immunoprecipitated with immobilized anti-FLNA and the α7nAChR and FLNA levels in the anti-FLNA immunoprecipitates determined by Western blotting (FIG. 2A) and quantified by densitometry (FIG. 2B). n=3. […] The letter designation “M” that accompanies many of the “C-series” compounds is omitted from FIG. 2, the remaining figures and most discussions of the figures and compounds hereinafter for ease in expression. Structural formulas of the compounds used in this and the other figures are provided hereinafter. […]

mu opiate receptor (MOR) = biological target: T2, mu opiate receptor (MOR) (Rattus norvegicus, UniProt P33535); format: biochemical; conditions: for MOR agonist activity ([35S]GTPγS binding), compound as agonist / MOR agonist activity (in words): preliminary study; for MOR agonist activity ([35S]GTPγS binding), compound as agonist: average of two runs; for Concentration of FLNA-Binding Compound as Agonist 0.1 μM / Concentration of FLNA-Binding Compound as Agonist 1 μM / Concentration of FLNA-Binding Compound as Agonist 1 μM + BFNA: [35S]GTPγS binding to Gαo in striatal membranes; for Concentration of FLNA-Binding Compound as Agonist 0.1 μM: compound 0.1 μM; for Concentration of FLNA-Binding Compound as Agonist 1 μM: compound 1 μM; for Concentration of FLNA-Binding Compound as Agonist 1 μM + BFNA: compound 1 μM plus 1 μM β-funaltrexamine (MOR antagonist)
T2 construct: from tissue; host or cells: striatum (membrane preparation)
T2 sequence (P33535 whole entry): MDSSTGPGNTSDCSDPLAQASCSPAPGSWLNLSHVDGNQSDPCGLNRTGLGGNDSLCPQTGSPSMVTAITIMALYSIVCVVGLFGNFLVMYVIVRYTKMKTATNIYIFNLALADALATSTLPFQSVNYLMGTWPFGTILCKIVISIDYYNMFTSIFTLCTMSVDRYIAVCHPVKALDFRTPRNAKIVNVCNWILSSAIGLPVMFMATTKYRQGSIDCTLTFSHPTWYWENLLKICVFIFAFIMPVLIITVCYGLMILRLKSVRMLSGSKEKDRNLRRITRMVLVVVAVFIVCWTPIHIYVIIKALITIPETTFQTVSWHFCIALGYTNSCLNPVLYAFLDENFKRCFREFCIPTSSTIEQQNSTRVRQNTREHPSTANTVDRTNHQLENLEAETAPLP

[2] = biological target: VAKGL pentapeptide of filamin A (FLNA) of SEQ ID NO: 1 (Homo sapiens, UniProt P21333); experiment: FITC-NLX-based FLNA screening assay (inhibition of FITC-naloxone binding to Bn-VAKGL on streptavidin plates); conditions: for Binding to FLNA (in words): preliminary study; for Percent Binding Inhibition (FITC-NLX binding): 10 nM FITC-NLX
[3] = tested on: tau protein phosphorylated at S202, T231 and T181; experiment: Aβ42-induced tau phosphorylation in rat frontal cortical synaptosomes; format: cell-based; conditions: 1 or 10 nM compound, simultaneously or 10-minute pretreatment; Aβ42 0.1 μM
Protocol: FIG. 4 in four panels as FIGS. 4A-4D, illustrates that FLNA-binding compounds reduce tau phosphorylation at all three phosphorylation sites. […] The three phosphoepitopes of tau were detected in immunoprecipitates using specific antibodies. […] Immunoprecipitates were determined by Western blotting (FIGS. 4A-4C) and quantified by densitometry (FIG. 4D).
(§1) FIG. 42, also in two panels, FIGS. 42A and 42B, illustrates that FLNA-binding compounds reduce tau phosphorylation at all three phosphorylation sites using the compounds and concentrations of FIG. 41 using immunoprecipitation and Western blotting. […] The three phosphoepitopes of tau were detected in immunoprecipitates using specific antibodies.
as §1, with “44,” for “42,”, “FIG. 44A” for “FIGS. 42A”, “FIG. 44B,” for “42B,”, “43” for “41”, “antibodies. Aβ42 strongly promotes tau phosphorylation at all three sites.” for “antibodies.”
as §1, with “46,” for “42,”, “FIG. 46A” for “FIGS. 42A”, “FIG. 46B,” for “42B,”, “45” for “41”, “antibodies. Aβ42 strongly promotes tau phosphorylation at all three sites.” for “antibodies.”
The three primary phosphorylation sites on tau protein were examined for their phosphorylation levels compared to total tau protein content. Tau, phosphorylated at these three sites, is a constituent of NFTs. Consistent with effects on FLNA-α7nAChR association, and ERK2 activation, all of the FLNA-binding compounds assayed, with 10 minute pre-incubation, decreased Aβ42-induced phosphorylation of tau at all three sites (FIG. 4).

α7nAChR-FLNA complex [4] = biological target: T3, α7nAChR-FLNA complex (Homo sapiens, UniProt P36544); format: cell-based
T3 construct: In postmortem control frontocortical tissue, Aβ42-induced FLNA recruitment to α7nAChRs was mimicked; from tissue; host or cells: postmortem frontal cortex of control subjects
T3 sequence (P36544 23-502, one chain of several): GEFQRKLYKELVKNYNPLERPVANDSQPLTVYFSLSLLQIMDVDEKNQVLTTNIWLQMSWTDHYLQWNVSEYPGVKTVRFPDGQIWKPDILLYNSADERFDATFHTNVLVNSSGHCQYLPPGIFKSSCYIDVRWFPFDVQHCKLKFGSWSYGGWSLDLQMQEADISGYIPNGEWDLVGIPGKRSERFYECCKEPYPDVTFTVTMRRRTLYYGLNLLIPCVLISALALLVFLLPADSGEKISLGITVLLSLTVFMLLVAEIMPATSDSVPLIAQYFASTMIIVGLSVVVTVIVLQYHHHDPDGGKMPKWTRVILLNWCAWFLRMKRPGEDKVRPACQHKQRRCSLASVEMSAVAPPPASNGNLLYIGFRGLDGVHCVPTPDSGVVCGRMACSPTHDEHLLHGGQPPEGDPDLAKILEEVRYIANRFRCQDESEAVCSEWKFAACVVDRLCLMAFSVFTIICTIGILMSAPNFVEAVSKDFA
Protocol: Incubation continued for 1 hour in the dark. […] The reaction was terminated by the addition of 1.5 ml of ice-cold Ca^2+-free K-R, and slices were collected by a brief centrifugation.
Solubilized immunoprecipitates derived from co-immunoprecipitation assays were separated by either 7.5 or 10% SDS-PAGE and then electrophoretically transferred to nitrocellulose membranes. The membranes were washed with PBS and blocked overnight (about 18 hours) at 4° C. with 10% milk in PBS with 0.1% Tween®-20 (PBST). Following three 5-minute washes with 0.1% PBST, the membranes were incubated at room temperature for 2 hours with antibody of choice at 1:500-1:1,000 dilutions. After three 2-minute washes in 0.1% PBST, membranes were incubated for 1 hour with anti-species IgG-HRP (1:5,000 dilution) and washed with 0.1% PBST three times, 2-minutes each. Immunoreactivity was visualized by reacting with chemiluminescent reagent (Pierce-ENDOGEN) for exactly 5 minutes and immediately exposing to X-ray film. Specific bands were quantified by densitometric scanning (GS-800 calibrated densitometer, Bio-Rad Laboratories).

CC(=O)c1ccc(S(=O)(=O)N2CC(CN(C)C)OC23CCN(C)CC3)cc1 (stereo not drawn) [Compound C0108]
α7nAChR-FLNA association (ratio α7nAChR/FLNA) (α7nAChR-FLNA complex [1]): reduce α7nAChR-FLNA association

C=CCN1CCC2(CC1)OCCN2S(=O)(=O)c1ccc(C)cc1 [Compound 10]
MOR agonist activity ([35S]GTPγS binding), compound as agonist (mu opiate receptor (MOR); 0.1 μM): 163.1%
MOR agonist activity ([35S]GTPγS binding), compound as agonist (mu opiate receptor (MOR); 1 μM + βNFA): 60.4%
MOR agonist activity ([35S]GTPγS binding), compound as agonist (mu opiate receptor (MOR); 1 μM): 191.8%
MOR agonist activity (in words) (mu opiate receptor (MOR)): MOR agonists
Binding to FLNA (in words) [2]: bind well to FLNA

O=C(Nc1ccccc1)N1CCC2(CC1)NCC(=O)N2Cc1ccccc1 [Compound C]
α7nAChR-FLNA association (ratio α7nAChR/FLNA) (α7nAChR-FLNA complex [1]): statistically different from Aβ42 alone
Aβ42-induced tau phosphorylation at S202, T231 and T181 [3]: did not provide a statistically significant result at two phosphorylation positions when simultaneously administered

O=C1CNC2(CCN(CC3CC3)CC2)N1Cc1ccccc1 [Compound C0124]
α7nAChR-FLNA association (ratio α7nAChR/FLNA) (α7nAChR-FLNA complex [1]): reduce α7nAChR-FLNA association
Aβ42-induced tau phosphorylation at S202, T231 and T181 [3]: reduced this phosphorylation at both concentrations

CCN1C[C@]2(COC(=O)c3ccccc3N3C(=O)C[C@H](C)C3=O)CC[C@H](OC)[C@@]34[C@@H]5C[C@H]6[C@H](OC)[C@@H]5[C@](O)(C[C@@H]6OC)[C@@](O)([C@@H](OC)[C@H]23)[C@@H]14 [Methyllycaconitine, methyllycaconitine]
Aβ42 effect, % (α7nAChR-FLNA complex [4]): 2.0 ± 1.2%
FLNA recruitment to α7nAChRs (in words) (α7nAChR-FLNA complex [4]): showed no effect
FLNA/α7nAChR ratio (α7nAChR-FLNA complex [4]): 0.08 ± 0.02
FLNA/α7nAChR ratio (stimulation vs vehicle, %) (α7nAChR-FLNA complex [4]): (19.8 ± 12.2) %

Cc1ccc(S(=O)(=O)N2CCOC23CCN(CC2CCC2)CC3)cc1 [Compound 9]
MOR agonist activity ([35S]GTPγS binding), compound as agonist (mu opiate receptor (MOR); 0.1 μM): 156.6%
MOR agonist activity ([35S]GTPγS binding), compound as agonist (mu opiate receptor (MOR); 1 μM + βNFA): 56.6%
MOR agonist activity ([35S]GTPγS binding), compound as agonist (mu opiate receptor (MOR); 1 μM): 197.2%
MOR agonist activity (in words) (mu opiate receptor (MOR)): MOR agonists
Binding to FLNA (in words) [2]: bind well to FLNA

COc1c2c(cc3c1C(CC(=O)c1ccc(F)c(F)c1)[N+](C)(C)CC3)OCO2 (stereo not drawn) [Compound B0003]
% DAMGO (0.1 μM) (mu opiate receptor (MOR)): 59.9%
% DAMGO (1 μM) (mu opiate receptor (MOR)): 47.4%
% DAMGO + BFNA (mu opiate receptor (MOR)): 29.0%
Concentration of FLNA-Binding Compound as Agonist 0.1 μM (mu opiate receptor (MOR)): 103.0%
Concentration of FLNA-Binding Compound as Agonist 1 μM (mu opiate receptor (MOR)): 131.1%
Concentration of FLNA-Binding Compound as Agonist 1 μM + BFNA (mu opiate receptor (MOR)): 18.6%
Percent Binding Inhibition (FITC-NLX binding) ([2]; 0.01 μM FLNA-binding compound): 45.4%
Percent Binding Inhibition (FITC-NLX binding) ([2]; 0.1 μM FLNA-binding compound): 52.9%
Percent Binding Inhibition (FITC-NLX binding) ([2]; 1 μM FLNA-binding compound): 63.5%

CC1CCC(C(C)C)C(OCC(O)CN2CCc3ccccc32)C1 (stereo not drawn) [Compound A0065]
% DAMGO (0.1 μM) (mu opiate receptor (MOR)): 126.6%
% DAMGO (1 μM) (mu opiate receptor (MOR)): 115.7%
% DAMGO + BFNA (mu opiate receptor (MOR)): 112.5%
Concentration of FLNA-Binding Compound as Agonist 0.1 μM (mu opiate receptor (MOR)): 197.6%
Concentration of FLNA-Binding Compound as Agonist 1 μM (mu opiate receptor (MOR)): 266.8%
Concentration of FLNA-Binding Compound as Agonist 1 μM + BFNA (mu opiate receptor (MOR)): 44.9%
Percent Binding Inhibition (FITC-NLX binding) ([2]; 0.01 μM FLNA-binding compound): 38.7%
Percent Binding Inhibition (FITC-NLX binding) ([2]; 0.1 μM FLNA-binding compound): 50.0%
Percent Binding Inhibition (FITC-NLX binding) ([2]; 1 μM FLNA-binding compound): 50.8%

CC1CCC(C(C)C)C(OCC(O)CN2CCCCC2)C1 (stereo not drawn) [Compound A0005]
% DAMGO (0.1 μM) (mu opiate receptor (MOR)): 105.0%
% DAMGO (1 μM) (mu opiate receptor (MOR)): 89.6%
% DAMGO + BFNA (mu opiate receptor (MOR)): 45.1%
Concentration of FLNA-Binding Compound as Agonist 0.1 μM (mu opiate receptor (MOR)): 179.7%
Concentration of FLNA-Binding Compound as Agonist 1 μM (mu opiate receptor (MOR)): 239.2%
Concentration of FLNA-Binding Compound as Agonist 1 μM + BFNA (mu opiate receptor (MOR)): 23.5%

CC1CCC(C(C)C)C(OCC(O)CN2CCCN(C)CC2)C1 (stereo not drawn) [Compound A0010]
% DAMGO (0.1 μM) (mu opiate receptor (MOR)): 161.9%
% DAMGO (1 μM) (mu opiate receptor (MOR)): 119.5%
% DAMGO + BFNA (mu opiate receptor (MOR)): 365.3%
Concentration of FLNA-Binding Compound as Agonist 0.1 μM (mu opiate receptor (MOR)): 277.2%
Concentration of FLNA-Binding Compound as Agonist 1 μM (mu opiate receptor (MOR)): 319.0%
Concentration of FLNA-Binding Compound as Agonist 1 μM + BFNA (mu opiate receptor (MOR)): 190.3%

O=C1CNC2(CCN(C(=S)Nc3ccccc3)CC2)N1Cc1ccccc1 [Compound A]
α7nAChR-FLNA association (ratio α7nAChR/FLNA) (α7nAChR-FLNA complex [1]): statistically different from Aβ42 alone
Aβ42-induced tau phosphorylation at S202, T231 and T181 [3]: reduced tau phosphorylation with simultaneous administration at 1 nM
